# Measurements taken from patent publication US11013690B2, “Esterification/saponification-based method for liposomal encapsulation of hydrophilic glucuronides” (priority 2016, dated 2021).
# Assays:
# [1] = Pharmacokinetics of free vs liposomal 9AC-G in mice; assay type: in vivo, NOD/SCID mice; conditions: 25 mg/kg intravenously, 9AC-G in serum by HPLC
# Protocol: FIG. 39 illustrates the pharmacokinetics in mice of free 9AC-G compared to liposomal 9AC-G. A dose of 25 mg/kg of either free 9AC-G or liposomal 9AC-G was injected intravenously by the tail of NOD/SCID mice. Blood samples were collected at different times and the concentration of 9AC-G was determined by HPLC. n=3, Error bars, SD.
# This example relates to a test of whether the liposomal formulation of 9AC-G could display prolonged pharmacokinetics when compared to free 9AC-G. Free and liposomal 9AC-G were delivered intravenously at 25 mg/kg to 12 to 16 weeks old female mice. The total serum concentrations of 9AC-G were monitored by collecting blood samples in which the plasma was isolated from the red blood cells by centrifugation. The serum proteins were precipitated in acetonitrile:methanol:0.2 M trichloroacetic acid (2:2:1, vol:vol mixture). Samples were centrifuged to eliminate precipitated proteins and diluted in buffer containing 1% triton X-100 to lyse the liposomes and analyze 9AC-G quantities by HPLC.
# [2] = tested on: MDA-MB-468 tumors; assay: In-vivo anti-tumor activity, MDA-MB-468 subcutaneous tumors; design: species or system NOD/SCID mice; conditions: i.v. weekly x4, free 9AC 2 mg/kg, free 9AC-G 10 mg/kg; for mice survival: 9AC-G liposomes 10 mg/kg
# Excerpt: FIG. 41 illustrates the in-vivo anti-tumor activity of liposomal 9AC-G. NOD/SCID mice were inoculated subcutaneously with 10^7 MDA-MB-468 cells. When tumors reached 75 to 100 mm^3 the treatment started at one injection per week for a total of 4 treatments. Figure represents the tumor volume evolution. n=7, Error bars: SD. Differences in tumor sizes between groups were examined for statistical significance using one-way ANOVA followed by Dunnettt's multiple comparisons. Stars indicate significance; n.s=non-significant and p<0.0001 (***)
# FIG. 42 illustrates the mice survival after treatment with 9AC, 9AC-G or 9AC-G liposomes. n=7, Error bars, SD
# FIG. 44 illustrates the tumor growth of MDA-MB-468 human breast cancer cells (10^7 cells in 100 μL PBS) injected subcutaneously in twelve to sixteen-week old female NOD/SCID immunodeficient mice. When tumors reached sizes from 75 mm^3 to 100 mm^3, groups of 7 mice were treated at weekly intervals for four times with intravenous injections of 9AC-G (10 mg/kg) or doxorubicin liposomes (Doxisome®, 1 mg/kg). n=7, Error bars, SD. Differences in tumor sizes between groups were examined for statistical significance using one-way ANOVA followed by Dunnettt's multiple comparisons. Stars indicate significance; p<0.001 (**) and p<0.0001 (***)
# Next, in an in-vive model of breast cancer in NOD/SCID mice, 10^7 MDA-MD468 cells were inoculated subcutaneously per mouse. The treatment was started when the tumors reached an average size of 75 to 100 mm^3. Mice were intravenously injected with 9AC-G liposomes at 10 mg/kg, free parental 9AC (2 mg/kg), or free 9AC-G (10 mg/kg). […] Appreciably, low toxicity was observed and the tumors were undetectable when treated with 9AC-G liposomes after 4 treatments for 6 over 7 mice, as shown in FIG. 41. […] We observed that the amount of activated parental drug 9AC was over 30 folds higher in the tumor than in the blood 24 hours after injection of 9AC-G liposomes (FIG. 43). This phenomenon is likely due to the enhanced permeability and retention effect (EPR) by which nanoparticles accumulate and are retained in tumor through leaky blood tumor vasculature.
# [3] = tested on: HCC36 human hepatocellular carcinoma cells; assay: Effect of human serum albumin on toxicity to HCC36 cells; assay type: cell-based; conditions: HCC36, human serum albumin 40 mg/mL, 24 hours, 3H-thymidine incorporation
# Protocol: FIG. 35 illustrates the neutralizing effect of human serum albumin on free 9AC-G. Human hepatocellular carcinoma cells (HCC36) were exposed to free 9AC-G with or without human serum albumin (40 mg/mL) for 24 hours. Cell proliferation was observed by ^3H-thymidine incorporation assay. Human serum albumin inhibits the potency of free 9AC-G that is not loaded into liposomes. n=3, Error bars, SD.
# FIG. 36 illustrates the inability of human serum albumin to neutralize 9AC-G after liposomal loading. Human hepatocellular carcinoma cells (HCC36) were exposed to liposomal 9AC-G with or without human serum albumin (40 mg/mL) for 24 hours. Cell proliferation was observed by ^3H-thymidine incorporation assay.
# Anticancer activity of liposomes loaded with glucuronide-mE to encapsulate glucuronide can be assessed in-vitro or in-vivo. In an in-vitro assay, cancer cell lines can be seeded in wells or plates and various concentrations of liposomal glucuronide can be applied to the cells for a period of time, such as 24 hours, and cell killing can be assayed. Tritiated thymidine can be used to assay cell proliferation. […] Liposomal doxorubicin and liposomal 9AC-G toxicities were assessed with 3 human colon cancer cells (LS174T, HT29, and HCT16), 3 human lung cancer cells (CL1-5, NCI-H2170, and SK-MES-1) and 1 human breast cancer cells (MDA-MB-468). […]
# [4] = biological target: T1, human beta-glucuronidase (Homo sapiens, UniProt P08236); assay: Regeneration of parental drug by beta-glucuronidase at pH 4.5; assay type: biochemical; conditions: pH 4.5 to mimic lysosomes
# T1 sequence (P08236 23-651): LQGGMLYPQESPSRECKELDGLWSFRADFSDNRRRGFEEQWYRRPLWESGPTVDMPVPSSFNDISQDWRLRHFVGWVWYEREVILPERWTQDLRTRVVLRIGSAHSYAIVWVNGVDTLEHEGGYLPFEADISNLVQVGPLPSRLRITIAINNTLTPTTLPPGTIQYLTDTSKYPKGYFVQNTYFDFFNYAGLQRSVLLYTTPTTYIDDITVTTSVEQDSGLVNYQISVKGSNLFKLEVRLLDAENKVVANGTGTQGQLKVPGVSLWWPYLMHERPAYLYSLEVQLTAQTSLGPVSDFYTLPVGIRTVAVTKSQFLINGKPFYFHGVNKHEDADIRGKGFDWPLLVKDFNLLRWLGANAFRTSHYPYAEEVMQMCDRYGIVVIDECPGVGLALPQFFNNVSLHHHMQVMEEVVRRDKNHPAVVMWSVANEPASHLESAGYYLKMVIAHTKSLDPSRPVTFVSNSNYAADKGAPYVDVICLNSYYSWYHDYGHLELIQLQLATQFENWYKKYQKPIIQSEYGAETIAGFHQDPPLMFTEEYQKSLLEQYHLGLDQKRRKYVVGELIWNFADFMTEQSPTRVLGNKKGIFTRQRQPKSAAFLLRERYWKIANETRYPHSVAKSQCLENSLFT
# Protocol: FIG. 28 illustrates the reversibility of the conjugation of the glucuronide residue to a parental compound. Here, 9AC was analyzed by HPLC before (1.) and after glucuronide conjugation (2.). […] 9AC-G incubated with human enzyme beta-glucuronidase at pH 4.5 to mimic the lysosomal conditions, could regenerate the original parental drug 9AC (5.). (RFU=relative fluorescent units)
# In real conditions, it is extrapolated that liposomal glucuronides can be uptake by cells and that the liposomes can release the glucuronide inside lysosomes after degradation as illustrated in FIG. 29. Illustrations of compound regeneration are provided using 2 examples: 9AC-G (linked by self-immolative chemical linker that is removed upon enzyme hydrolysis, FIG. 30) and fluorescein (directly linked to glucuronide residues, FIG. 31). Effective amounts of 9AC were found in the medium of HCC36 and MDA-MB468 human cancer cells after addition of 9AC-G liposomes. On the other hand, when no cells were present, no 9AC was found, meaning that the regeneration of 9AC was dependent on the cells (FIG. 32). […] To further illustrate the parental compound regeneration ability, we incubated HCC36 cells engineered with LDL-R/anti PEG receptors with liposomal fluorescein-di-G (non-fluorescent). At early time, the liposomes (red) were taken up by the cells and started to colocalize with the lysosomes (magenta). […]
# [5] = pH stability of 9AC-GmE (HPLC); assay type: physicochemical
# Protocol: FIG. 6 illustrates the stability of 9-aminocamptothecin glucuronide methylester (9AC-GmE) at acidic pH. 9AC-GmE stability was monitored over time at 75° C., at pH 5. Quantification was done by HPLC at excitation and emission of 370 and 460 nm, respectively. (Abbreviations: 9AC, 9-aminocamptothecin; 9AC-G, 9-aminocamptothecin glucuronide; 9AC-GmE, methylester form of 9AC-G). n=3. Error bars, SD.
# FIG. 7 illustrates the conversion of 9-aminocamptothecin glucuronide methylester (9AC-GmE) to 9-aminocamptothecin glucuronide (9AC-G) at basic pH. 9AC-GmE conversion to 9AC-G was monitored over time at 75° C., at pH 8.5. Quantification was done by HPLC at excitation and emission of 370 and 460 nm, respectively. n=3. Error bars, SD.
# The behavior of 9AC-GmE was investigated at different pH and temperatures.
# [6] = Octanol-to-water partitioning assay; assay type: physicochemical; conditions: 1-octanol / citric acid pH 5, room temperature
# Protocol: FIG. 4 illustrates the octanol to water distribution of glucuronides and glucuronide-mE. Glucuronides and glucuronide-mE were incubated overnight in immiscible aqueous and organic phases (citric acid pH 5 and 1-octanol) under gentle shaking at room temperature. Samples from each phase were analyzed to characterize the distribution of the compounds. n=3-5
# FIG. 5 illustrates the Log P of glucuronides and glucuronide-mE compounds in each phase of 1-octanol and citric acid pH 5 following the formula: log Poctanol/water=log ([solute]octanol/[solute]water). n=3-5. Error bars, SD
# 9-aminocamptothecin glucuronide (9AC-G), 5,6-dihydro-4H-benzo[de]quinoline-camptothecin-β-D-glucuronide (BQC-G) and 4-methylumbelliferyl-β-D-glucuronide (4MU-G) can be incubated in methanol in the presence of a strong acid (sulfuric acid) as a catalyzer (FIG. 2).
# Distribution of the different compounds were measured by dilution in a 1:1 volume of octanol and 100 mM citric acid buffer at pH 5 (FIG. 4). The solutions were gently stirred for 24 hours at room temperature, spun down at 2,500×g and glucuronides or glucuronide-mE in each phase was quantified by HPLC and the partition coefficients were calculated as log Poctanol/water=log ([solute]octanol/[solute]water) ([…]).
Molecule,mice survival [2],effect on tumor growth [2],partition versus corresponding glucuronide [6],other results
9-aminocamptothecin glucuronide [9AC-G],not,little effect on the tumor growth,,initial half-life [1]: 9.3 min; terminal half-life [1]: 38.6 min; effect of human serum albumin on toxicity [3]: toxicity is suppressed; conversion to parental drug by beta-glucuronidase [4]: completely converted to 9AC
9-aminocamptothecin glucuronide methylester [9AC-GmE],,,increased partition into an organic phase,"stability of methylester group at basic pH (saponification to 9AC-G) ([5]; basic pH (8.5), 75° C.): easily is hydrolyzed; stability at acidic pH ([5]; pH 5, 75° C.): very stable"
COC(=O)C1OC(Oc2ccc3c(C)cc(=O)oc3c2)C(O)C(O)C1O (stereo not drawn) [4MU-GmE],,,increased partition into an organic phase,
"CC[C@@]1(O)C(=O)OCc2c1cc1n(c2=O)Cc2cc3c(N)cccc3nc2-1 [9AC, 9-aminocamptothecin, reference compound]",not,little effect on the tumor growth,,
